We go through two compounds from patent US12502392B2, “DRG-MDM2-6 for use as a novel mouse double minute 2 (MDM2) inhibitor” (BAHCESEHIR UNIVERSITESI, priority 2021, dated 2025).

In experiment [1] the test system is MDA-MB231 breast cancer cell line. Kind of experiment: MTT cell viability assay (IC50). Conditions: Homo sapiens, MDA-MB-231; MDA-MB231 cells, single dose of treatment, 10^−9 to 10^−4 M, 570 nm absorbance, FIG. 1; read-out: IC50 (half-maximal inhibitory concentration). The class given is cell-based. On the procedure: HCT 116 colon cancer and MDA-MB231 breast cancer cell lines are used in cell culture experiments.
Cells were treated with high-glucose DMEM medium (Biosera) supplemented with 10% FBS (Gibco) and 1× penicillin/streptomycin (Multicell). The assay was designed to contain 10,000 cells for each well of 24-well cell culture plates before being treated with inhibitors.
Compound of formula I was dissolved with DMSO as 20 mM stock. 24 hours later, the solution was diluted in DMEM with 10% FBS and final concentration of vehicle DMSO was 0.5% at maximum. Therefore, the vehicle group included 0.5% DMSO concentration in experiments. Intensive cultivation of cells causes a decrease in proliferation capacity.
The MTT cell viability assay was used to detect values of half-maximal inhibitory concentration (IC50). Different concentrations of compound of formula I ranging between 10^−9 to 10^−4 M were tested on MDA-MB231 cell lines with single dose of treatment. 570 nm absorbance values were recorded and IC50 values were calculated by dose response-inhibition curves and nonlinear regression analysis on Graphpad Prism 8 software. IC50 value of compound of formula I was determined to be […] (FIG. 1).
A general note: Tetrazolium assays rely on reduction of a dye to a coloured formazan, in cell work by metabolically active cells.

The target in a further experiment is MDM2 protein (Homo sapiens, UniProt Q00987). The note with it: state of the art statement; cited from earlier work.
MDM2 protein, sequence (Q00987 whole entry, species assumed): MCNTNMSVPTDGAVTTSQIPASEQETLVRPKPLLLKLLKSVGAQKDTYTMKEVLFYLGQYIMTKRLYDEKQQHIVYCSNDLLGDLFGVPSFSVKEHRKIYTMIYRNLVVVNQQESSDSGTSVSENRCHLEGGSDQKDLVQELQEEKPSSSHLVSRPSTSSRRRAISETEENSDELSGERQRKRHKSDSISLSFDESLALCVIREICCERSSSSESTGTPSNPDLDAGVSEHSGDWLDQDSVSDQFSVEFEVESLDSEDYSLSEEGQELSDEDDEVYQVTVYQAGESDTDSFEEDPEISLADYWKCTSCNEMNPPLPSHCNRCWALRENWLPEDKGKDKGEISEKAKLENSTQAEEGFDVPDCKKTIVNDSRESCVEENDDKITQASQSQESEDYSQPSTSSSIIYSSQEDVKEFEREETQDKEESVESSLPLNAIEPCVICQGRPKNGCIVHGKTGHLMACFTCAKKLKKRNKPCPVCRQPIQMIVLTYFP

With `O=C(CCCc1nc2ccccc2c(=O)[nH]1)NC(Cc1c[nH]c2ccccc12)C(=O)O` (centres unmarked) [compound of formula I], the IC50 in experiment [1] amounted to 13 µM.
As to MI-319, on MDM2 protein, the “binding affinity to MDM2 relative to a natural p53 peptide” value is given as 500 fold.
